Reference: patent US9884806B2, “Cyclic vinylogous amides as bromodomain inhibitors” (ICAHN SCHOOL OF MEDICINE AT MOUNT SINAI, priority 2013, dated 2018)
Read-outs that look alike come from different tables or passages of the source.

Legend:
[1] = molecular target: T1, first bromodomain (BrD1) of human BRD4 (Homo sapiens, UniProt O60885); experiment: Fluorescence anisotropy binding assay (competition with FITC-labeled MS417 probe); details: FITC-MS417 probe 80 nM, PBS pH 7.4, 1 hour, 25° C., read-out: BRD4_1 IC50
T1 construct: the first bromodomain (BrD1) of human BRD4; poly-His (cleaved yes); made in house
Outline: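 BRD4 BrD1 (His tag removed by thrombin) at 0.25 to 1 μM competed against 80 nM FITC-labeled MS417 in PBS pH 7.4. Anisotropy read after 1 hour at 25° C. Ki derived from fitted IC50 by Nikolovska-Coleska-corrected Cheng-Prusoff equation, one-site competitive model.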

[2] = Human, rat, and mouse microsome stability assay; type: in vitro ADME; details: Sprague-Dawley (rat), CD1 (mouse), pH 7.4, rat, and mouse liver microsomes, 0.5 μM compound, 0.25 mg/mL microsomal protein, 37° C., read-out: intrinsic clearance Clint
Method: Human, Rat, and Mouse Microsome Stability Assay
Human, rat, and mouse liver microsomal incubations were carried out at 37° C. with a final incubation volume of 135 μL. Human liver microsomes (mixed gender, Catalog No. H2610) were obtained from XenoTech. Rat liver microsomes (male Sprague-Dawley, Catalog No. 452501) were obtained from BD Gentest. Mouse liver microsomes (male CD1, Catalog No. 452701) were obtained from BD Gentest. Incubations were conducted using a test compound (initially dissolved in DMSO at […] concentration) concentration of 0.5 μM and 0.25 mg/mL microsomal protein in 50 mM phosphate buffer at pH 7.4. Time zero samples were prepared by transferring 13.5 μL of compound-microsomal mix to the quench plates containing 45 μL of quench solution made of 10 nM Buspirone (Sigma) or 50 nM Carbutamide (Princeton Bio) as internal standard in 1:1 methanol:acetonitrile. An aliquot of 1.5 μL Nicotinamide adenine dinucleotide phosphate reduced tetrasodium salt (NADPH) was also added to the time zero plates. The reaction was then initiated by the addition of 13.5 μL NADPH to the compound-microsomal mix. At each of the remaining time points (5, 10, 15, 20, 30, 45 and 60 min) 15 μL of incubation mixture was added to 45 μL of quench solution. Samples were centrifuged for 15-30 minutes at 3800 rpm. Samples were then pooled for 6 per group. An aliquot of 60 μL of supernatant was transferred to 96-well plate, and a 5 μL aliquot was injected and analyzed by LC-MS (Applied Biosystems API 5500 QTrap).

[3] = molecular target: T2, BRD4_2 (Homo sapiens, UniProt O60885); experiment: Fluorescence anisotropy binding assay (competition with FITC-labeled MS417 probe), BRD4_2; details: FITC-MS417 probe 80 nM, PBS pH 7.4, 1 hour, 25° C.
T2 construct: contains two tandem bromodomains (BrD1 and BrD2)

[4] = system: mRNA transcript levels of cytokines IL-6, IL-1β and TNFα in RAW264.7 cells; experiment: LPS-induced transcriptional activation of cytokines in murine macrophage cells (quantitative PCR); type: cell-based; details: Mus musculus
Method: LPS-Induced Transcriptional Activation of Cytokines in Murine Macrophage Cells RAW264.7 cells were cultivated with or without a treatment of the compounds as described above. Total RNA was isolated the cells using TRIzol reagent (Gibco, Grand Island, N.Y.) for homogenization. The concentration and integrity of RNA were determined by measuring absorbance at a 260 nm/280 nm ratio. Quantitative PCR was performed to determine the mRNA transcript levels of cytokines IL-6, IL-1β and TNFα with specific primers for these target genes. Each experiment was performed at least in triplicate, and plotted using Prim, and an IC50 value was calculated.

[5] = system: NO release in RAW264.7 cells; experiment: LPS-stimulated nitric oxide (NO) release in murine macrophage RAW264.7 cells (Griess reaction); type: cell-based; details: Mus musculus, read-out: IC50 in inhibition of LPS-induced NO release
Method: LPS-Stimulated Nitric Oxide (NO) Release in Murine Macrophage RAW264.7 Cells
RAW264.7 cells was cultivated in DMEM supplemented with 10% FBS at 37° C. in a humidified atmosphere of 5% CO2. Cells in 96-well plates (0.1 ml, 3×10^5 cells/ml) were treated with the test compounds. After 30 min, all supernatants were removed and cells were treated with LPS (1 μg/ml) and the test compounds. After 24 hours, the level of nitrite was measured using Griess reaction G2930 (Promega Corp., Madison, Wis.) [see Bredt and Snyder, Ann Rev Biochem 63, 175-195 (1994)]. The test compounds dissolved in DMSO were diluted with culture medium to concentrations from 0.28 to 50,000 nM. The final concentration of DMSO was adjusted to 0.05% (v/v). The nitrite production was measured by spectrophotometry at 520 nm using EnVison 2104 Multilabel Reader (PerkinElmer, Inc., Waltham, Mass.). Each experiment was performed at least in triplicate and plotted using Prism.

[6] = RAW264.7 cells, LPS, quantitative PCR of mRNA transcript levels, read-out: IC50 in inhibition of transcriptional activation of the cytokines IL-6, IL-1β and TNFα
[7] = RAW264.7 cells, LPS 1 μg/ml, 24 hours, nitrite by Griess reaction
[8] = RAW264.7, read-out: IC50 in inhibition of transcriptional activation of the cytokines IL-6, IL-1β and TNFα

Row | Structure (SMILES) | IC50 [1] | microsomal CLint at 0.5 μM [2] | melting point | IC50 [3] | IC50 [4, 6] | IC50 [5, 7] | IC50 [4, 8] | IC50 ([5]; RAW264.7, 24 h)
1 | CC1=C(Nc2ccc3cc(C(=O)O)ccc3c2)CCCC1=O [Example 01-41, 6((2-methyl-3-oxocyclohex-1-en-1-yl)amino)-2-naphthoic acid] | 1 to 10 µM | 25 to 250 µL/min/mg | 259 to 263 °C | 1 to 10 µM | – | – | – | –
2 | COc1ccccc1NC(=O)c1ccc(NC2=C(C)C(=O)CC2)c(Cl)c1 [Example 04-17, 3-chloro-N-(2-methoxyphenyl)-4-((2-methyl-3-oxocyclopent-1-en-1-yl)amino)benzamide] | < 1 µM | – | – | 1 to 10 µM | 0.1 to 5 µM | 0.1 to 5 µM | – | –
3 | COc1ccc(NC(=O)Cc2cccc(NC3=C(C)C(=O)CCC3)c2)cc1 [Example 04-98, N-(4-methoxyphenyl)-2-(3-((2-methyl-3-oxocyclohex-1-en-1-yl)amino)phenyl)-acetamide] | > 10 µM | – | – | > 10 µM | – | – | 0.1 to 5 µM | 0.1 to 5 µM
4 | CC1=C(Nc2cccc(-c3cn(Cc4ccccc4)nn3)c2)CCC1=O [Example 06-04, 3-((3-(1-benzyl-1H-1,2,3-triazol-4-yl)phenyl)amino)-2-methylcyclopent-2-enone] | < 1 µM | – | – | 1 to 10 µM | 0.1 to 5 µM | 0.1 to 5 µM | – | –
5 | CC1=C(Nc2ccc(C(=O)Nc3ccccc3C)cc2Cl)CCCC1=O [Example 05-15, 3-chloro-4-((2-methyl-3-oxocyclohex-1-en-1-yl)amino)-N-(o-tolyl)benzamide] | < 1 µM | – | – | 1 to 10 µM | 0.1 to 5 µM | 0.1 to 5 µM | – | –
6 | CC1=C(Nc2cc(C(=O)Nc3ccccc3C)ccc2Cl)CCC1=O [Example 04-89, 4-chloro-3-((2-methyl-3-oxocyclopent-1-en-1-yl)amino)-N-(o-tolyl)benzamide] | < 1 µM | – | – | 1 to 10 µM | – | – | 0.1 to 5 µM | 0.1 to 5 µM
7 | CC1=C(Nc2cc(C(=O)O)ccc2Cl)CCCC1=O [Example 01-36, 4-chloro-3((2-methyl-3-oxocyclohex-1-en-1-yl)amino)benzoic acid] | > 10 µM | – | 232 to 235 °C | > 10 µM | 0.1 to 5 µM | 0.1 to 5 µM | – | –
8 | CC1=C(Nc2ccc(C(=O)Nc3cccc4ccccc34)cc2Cl)CCC1=O [Example 04-15, 3-chloro-4-((2-methyl-3-oxocyclopent-1-en-1-yl)amino)-N-(naphthalen-1-yl)-benzamide] | < 1 µM | – | – | 1 to 10 µM | – | – | 0.1 to 5 µM | 0.1 to 5 µM
9 | CC1=C(Nc2cc(N)ccc2Cl)CCC1=O [Example 02-15, 3-((5-amino-2-chlorophenyl)amino)-2-methylcyclopent-2-en-1-one] | 1 to 10 µM | – | 166 to 168 °C | 1 to 10 µM | – | – | – | –
10 | COc1cc(C(=O)O)ccc1NC1=C(C)C(=O)CC1 [Example 01-12, 3-methoxy-4-((2-methyl-3-oxocyclopent-1-en-1-yl)amino)benzoic acid] | 1 to 10 µM | – | 231 to 234 °C | 1 to 10 µM | – | – | – | –
11 | COC(=O)c1ccc(NC2=C(C)C(=O)CC2)c(F)c1 [Example 01-21, methyl 3-fluoro-4((2-methyl-3-oxocyclopent-1-en-1-yl)amino)benzoate] | 1 to 10 µM | – | 198 to 201 °C | > 10 µM | – | – | – | –
12 | CC1=C(Nc2cccc(C(=O)O)c2Cl)CCC1=O [Example 01-44, 2-chloro-3((2-methyl-3-oxocyclopent-1-en-1-yl)amino)benzoic acid] | 1 to 10 µM | – | 230 to 232 °C | > 10 µM | – | – | – | –
13 | CC1=C(Nc2cc(N)ccc2Cl)CCCC1=O [Example 02-10, 3-((5-amino-2-chlorophenyl)amino)-2-methylcyclohex-2-enone] | 1 to 10 µM | – | 182 to 184 °C | 1 to 10 µM | – | – | – | –
14 | CC1=C(Nc2nccnc2Cl)CCCC1=O [Example 01-50, 3-[(3-chloropyrazin-2-yl)amino]-2-methylcyclohex-2-en-1-one] | > 10 µM | – | 116 to 118 °C | > 10 µM | – | – | – | –
15 | CC1=C(Nc2ccc3ccccc3c2)CCC1=O [Example 01-27, 2-methyl-3-(naphthalen-2-ylamino)cyclopent-2-enone] | 1 to 10 µM | – | 248 to 250 °C | 1 to 10 µM | – | – | – | –
16 | CC1=C(Nc2cc(NC(=O)/C=C\C(=O)O)ccc2Cl)CCCC1=O [Example 05-83, (Z)-4-((4-chloro-3-((2-methyl-3-oxocyclohex-1-en-1-yl)amino)phenyl)-amino)-4-oxobut-2-enoic acid] | 1 to 10 µM | – | 182 to 185 °C | > 10 µM | – | – | – | –
17 | CC1=C(Nc2cc(NS(=O)(=O)Cc3ccccc3)ccc2Cl)CCC1=O [Example 05-54, N-(4-chloro-3-((2-methyl-3-oxocyclopent-1-en-1-yl)amino)phenyl)-1-phenylmethanesulfonamide] | < 1 µM | – | 196 to 198 °C | < 1 µM | – | – | – | –
18 | COC(=O)c1ccc(NC2=C(C)C(=O)CC2)c(Br)c1 [Example 01-22, methyl 3-bromo-4((2-methyl-3-oxocyclopent-1-en-1-yl)amino)benzoate] | 1 to 10 µM | – | 155 to 158 °C | 1 to 10 µM | – | – | – | –
19 | CC1=C(Nc2cccc(CC(=O)O)c2)CCCC1=O [Example 01-37, 2-(3((2-methyl-3-oxocyclohex-1-en-1-yl)amino)phenyl)acetic acid] | > 10 µM | – | 203 to 207 °C | > 10 µM | – | – | – | –
20 | CC1=C(Nc2cccc(NCCc3ccccc3C)c2Cl)CCCC1=O [Example 05-79, 3-((2-chloro-3-((2-methylphenethyl)amino)phenyl)amino)-2-methylcyclohex-2-enone] | 1 to 10 µM | – | 157 to 160 °C | > 10 µM | – | – | – | –
21 | CC1=C(Nc2cc(C(=O)Nc3ccccc3C)ccc2Cl)CCCC1=O [Example 04-91, 4-chloro-3-((2-methyl-3-oxocyclohex-1-en-1-yl)amino)-N-(o-tolyl)benzamide] | 1 to 10 µM | – | – | 1 to 10 µM | 0.1 to 5 µM | 0.1 to 5 µM | – | –
22 | CC1=C(Nc2cc(NS(=O)(=O)c3ccccc3F)ccc2Cl)CCC1=O [Example 05-58, N-(4-chloro-3-((2-methyl-3-oxocyclopent-1-en-1-yl)amino)phenyl)-2-fluorobenzenesulfonamide] | < 1 µM | – | 215 to 217 °C | < 1 µM | – | – | – | –
23 | CC1=C(Nc2ccc(NC(=O)C3CCCCC3)cc2Cl)CCCC1=O [Example 05-49, N-(3-chloro-4-((2-methyl-3-oxocyclohex-1-en-1-yl)amino)phenyl)-cyclohexanecarboxamide] | < 1 µM | – | 248 to 250 °C | 1 to 10 µM | – | – | – | –
